{
  "source": "paper PMC5382172",
  "about": "(Frontiers in Molecular Neuroscience, 2017)",
  "key": {"wild type GluClα/βR": {"tested_on": "wild type GluClα/βR", "parameters": "method as in Cully et al., [1994]", "details": "5 nM IVM, Xenopus oocytes; ref Cully et al., [1994]; cited from earlier work"}, "GluClαF276A/βWT receptor": {"molecular_target": "T1, GluClαF276A/βWT receptor (Caenorhabditis elegans, UniProt G5EBR3+Q17328, F276A)", "T1 construct": "entry codes of the full-length subunits used in this study; expressed in transfected cells; host or cells: CHO cells, transient co-transfection, pcDNA3.1 (X-tremeGENE HP for the IVM-EC50 experiments)", "T1 sequence (G5EBR3 21-461 F276A)": "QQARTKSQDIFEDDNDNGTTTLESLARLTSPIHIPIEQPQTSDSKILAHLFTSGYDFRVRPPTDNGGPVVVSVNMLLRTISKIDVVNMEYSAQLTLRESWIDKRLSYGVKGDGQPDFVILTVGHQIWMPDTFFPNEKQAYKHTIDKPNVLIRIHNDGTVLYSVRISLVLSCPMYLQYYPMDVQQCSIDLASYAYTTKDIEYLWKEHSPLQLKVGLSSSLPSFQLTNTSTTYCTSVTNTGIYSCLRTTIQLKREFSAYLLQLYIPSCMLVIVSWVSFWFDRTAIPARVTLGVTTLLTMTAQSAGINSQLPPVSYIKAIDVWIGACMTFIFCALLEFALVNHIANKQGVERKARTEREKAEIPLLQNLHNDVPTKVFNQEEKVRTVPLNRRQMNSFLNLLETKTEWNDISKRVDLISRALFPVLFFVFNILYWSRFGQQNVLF", "T1 sequence (Q17328 23-434)": "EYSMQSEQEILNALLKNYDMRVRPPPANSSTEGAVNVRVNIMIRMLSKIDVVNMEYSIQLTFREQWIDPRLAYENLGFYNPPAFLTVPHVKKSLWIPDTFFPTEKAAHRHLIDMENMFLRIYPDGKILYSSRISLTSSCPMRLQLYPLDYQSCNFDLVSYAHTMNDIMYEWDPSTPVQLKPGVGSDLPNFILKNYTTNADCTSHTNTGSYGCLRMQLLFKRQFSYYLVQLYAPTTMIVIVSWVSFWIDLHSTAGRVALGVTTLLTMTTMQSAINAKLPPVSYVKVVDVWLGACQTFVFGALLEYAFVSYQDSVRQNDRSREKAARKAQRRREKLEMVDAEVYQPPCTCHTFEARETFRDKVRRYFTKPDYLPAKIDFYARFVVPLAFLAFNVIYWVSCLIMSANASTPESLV", "test": "Whole-cell patch clamp in CHO cells, GluClαF276A/βWT receptor", "format": "cell-based", "method": "(§1) Chinese hamster ovary (CHO) cells were cultured as previously (Bar-Lev et al., [2011]) in Dulbecco’s Modified Eagle Medium (DMEM) containing 10% fetal calf serum, 2 mM glutamax, 100 Units/ml penicillin G and 100 μg/ml streptomycin, and grown in 5% CO2 at 37°C under 90%–95% humidity. The cells were seeded on glass coverslips (13-mm diameter) placed in a 24-multiwell plate. […] For the expression of GluCl receptors, cells were transiently co-transfected with pcDNA3.1 plasmids containing the ORFs of interest using transit-LT1 transfection reagent (Mirus, Madison, WI, USA), according to the manufacturer’s protocol. The cDNAs encoding the C. elegans GluClα (GLC-1) or its mutated versions and the GluClβ (GLC-2) subunits (200–600 ng per well) were used at 1:1 ratio. The pIRES-CD8 plasmid (200 ng per well) was added to enable the visualization of the expressing cells by beads coated with anti-CD8 antibodies (Invitrogen). For high-level expression of the GluClαF276A/βWT mutant receptor in experiments assigned to determine its IVM-EC50, we used the X-tremeGENE HP DNA Transfection Reagent (Roche Life Science). Recordings were performed 72–96 h following the transfection.\nWhole-cell patch clamp recordings were performed as described previously (Bar-Lev et al., [2011]) in CHO cells that were prepared as detailed above. The normal external solution (NES) contained (in millimolar): 140 NaCl, 2.8 KCl, 2 CaCl2, 2 MgCl2, 10 glucose and 10 HEPES, adjusted to pH 7.35 with NaOH (310 mOsm/L). The pipette solution contained (in millimolar): 130 KCl, 4 MgCl2, 4 Na2ATP, 1 EGTA and 10 HEPES, adjusted to pH 7.35 with KOH (290 mOsm/L). The osmolarity of these solutions was maintained by adding sucrose. The electrode resistance was 6–10 MΩ when filled with the pipette solution. External solutions were applied onto the cell by using the VC-77SP fast-step system (Warner Instruments, Hamden, CT, USA) combined with N2 pressure of 3–4 psi to produce laminar flow of the external solution onto the patched cell. All measurements were performed at room temperature. The currents were measured with an Axopatch 200B patch-clamp amplifier (Molecular Devices, Sunnyvale, CA, USA) and a Digidata 1440A interface (Molecular Devices). Acquisition of recording data was performed at 2.5 kHz and recordings were low-pass filtered at 1 kHz, through a four-pole Bessel filter. The pClamp 10 software (Molecular Devices) was used for data acquisition. […] Five-hundred milliseconds after the application started (which is also after the current reached to its peak at −60 mV), the voltage was stepped from −60 mV to −80 mV for 50 ms followed by a 250-ms-long voltage ramp ranging from −80 mV to +80 mV.\nDose-response curves were fitted to the data points by a nonlinear regression using the Hill Equation 1,"}, "[1]": {"molecular_target": "T2, GluClαWT (GLC-1) homomeric receptor (Caenorhabditis elegans, UniProt G5EBR3)", "T2 construct": "entry codes of the full-length subunits used in this study; expressed in transfected cells; host or cells: CHO cells, transient transfection, pcDNA3.1", "T2 sequence (G5EBR3 21-461)": "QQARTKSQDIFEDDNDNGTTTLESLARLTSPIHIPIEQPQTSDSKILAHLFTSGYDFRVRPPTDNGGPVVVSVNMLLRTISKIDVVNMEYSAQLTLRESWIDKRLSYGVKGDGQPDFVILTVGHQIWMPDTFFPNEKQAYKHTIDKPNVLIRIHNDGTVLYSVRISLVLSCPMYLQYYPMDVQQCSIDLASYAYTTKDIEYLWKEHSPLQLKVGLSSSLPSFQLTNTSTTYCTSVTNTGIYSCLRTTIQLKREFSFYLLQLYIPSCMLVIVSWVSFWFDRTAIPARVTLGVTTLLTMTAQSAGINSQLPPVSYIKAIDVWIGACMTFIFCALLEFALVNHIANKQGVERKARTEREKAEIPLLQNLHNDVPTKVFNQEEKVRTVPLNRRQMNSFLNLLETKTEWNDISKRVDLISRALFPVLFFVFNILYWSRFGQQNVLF", "parameters": "method as in Degani-Katzav et al., [2016]", "details": "CHO cells, αWT alone; ref Degani-Katzav et al., [2016]; cited from earlier work"}, "GluClαP192M/βWT receptor": {"molecular_target": "T3, GluClαP192M/βWT receptor (Caenorhabditis elegans, UniProt G5EBR3+Q17328, P192M)", "T3 construct": "entry codes of the full-length subunits used in this study; expressed in transfected cells; host or cells: CHO cells, transient co-transfection 1:1, pcDNA3.1", "T3 sequence (Q17328 23-434)": "as the sequence (Q17328 23-434) above", "T3 sequence (G5EBR3 21-461 P192M)": "as the sequence (G5EBR3 21-461 F276A) above, with P172M, A256F counted along it", "test": "Whole-cell patch clamp in CHO cells, GluClαP192M/βWT receptor", "format": "cell-based", "details": "500 nM IVM, -60 mV", "method": "as §1, with “For high-level expression of the GluClαF276A/βWT mutant receptor in experiments assigned to determine its IVM-EC50, we used the X-tremeGENE HP DNA Transfection Reagent (Roche Life Science). Recordings were performed 72–96 h following the transfection.” left out\n(§2) Whole-cell patch clamp recordings were performed as described previously (Bar-Lev et al., [2011]) in CHO cells that were prepared as detailed above. […] The currents were measured with an Axopatch 200B patch-clamp amplifier (Molecular Devices, Sunnyvale, CA, USA) and a Digidata 1440A interface (Molecular Devices). […]"}, "GluClαP192E/βWT receptor": {"molecular_target": "T4, GluClαP192E/βWT receptor (Caenorhabditis elegans, UniProt G5EBR3+Q17328, P192E)", "T4 construct": "entry codes of the full-length subunits used in this study; expressed in transfected cells; host or cells: CHO cells, transient co-transfection 1:1, pcDNA3.1", "T4 sequence (Q17328 23-434)": "as the sequence (Q17328 23-434) above", "T4 sequence (G5EBR3 21-461 P192E)": "as the sequence (G5EBR3 21-461 F276A) above, with P172E, A256F counted along it", "test": "Whole-cell patch clamp in CHO cells, GluClαP192E/βWT receptor", "format": "cell-based", "details": "500 nM IVM, -60 mV", "method": "as §1, with “For high-level expression of the GluClαF276A/βWT mutant receptor in experiments assigned to determine its IVM-EC50, we used the X-tremeGENE HP DNA Transfection Reagent (Roche Life Science). Recordings were performed 72–96 h following the transfection.” left out\nas §2"}},
  "note": "Several values for one entry are separate records, joined by “and”; a condition that tells them apart may be missing. Equal values may be shown once.",
  "data": [
    {"smiles": "CC[C@H](C)[C@H]1O[C@]2(CC[C@@H]1C)C[C@@H]1C[C@@H](C/C=C(\\C)[C@@H](O[C@H]3C[C@H](OC)[C@@H](O[C@H]4C[C@H](OC)[C@@H](O)[C@H](C)O4)[C@H](C)O3)[C@@H](C)/C=C/C=C3\\CO[C@@H]4[C@H](O)C(C)=C[C@@H](C(=O)O1)[C@]34O)O2", "note": "[IVM, ivermectin]", "values": [
      {"measurement": "potentiation of Glu-sensitive currents by IVM", "setting": "wild type GluClα/βR", "result": "~ 5 fold"},
      {"measurement": "increase in IVM-EC50 relative to GluClαWT/βWT", "setting": "GluClαF276A/βWT receptor", "result": 20, "unit": "fold"},
      {"measurement": "Fold decrease in Glu-EC50 observed after pre-exposure to IVM", "setting": "GluClαF276A/βWT receptor; 50 nM IVM", "result": "~ 8.5 fold"},
      {"measurement": "magnitude of the IVM-elicited current", "setting": "GluClαF276A/βWT receptor; 50 nM IVM, -60 mV, just before the second application of Glu", "result": 70, "unit": "pA"},
      {"measurement": "decrease of IVM/Glu response ratio compared to GluClαWT/βWT", "setting": "GluClαF276A/βWT receptor; 500 nM IVM (-60 mV) over Glu-EC50 concentration (+60 mV) peak currents", "result": "~ 7 fold"},
      {"measurement": "fold-potentiation of Glu-elicited response by IVM", "setting": "GluClαF276A/βWT receptor; 1 mM Glu before and after exposure to 50 nM IVM", "result": "~ 18 fold and 17.9 ± 1.8 fold"},
      {"measurement": "IVM (500 nM) Amplitude", "setting": "GluClαF276A/βWT receptor; CHO cells, 500 nM IVM, -60 mV", "result": "0.2 ± 0.03", "unit": "nA"},
      {"measurement": "Hill coefficient of activation by IVM", "setting": "GluClαF276A/βWT receptor; cumulative IVM concentrations, -60 mV", "result": "3.5 and 3.5 ± 0.40"},
      {"measurement": "EC50", "setting": "GluClαF276A/βWT receptor; cumulative IVM concentrations, -60 mV, high-level expression (X-tremeGENE HP)", "result": 0.802, "unit": "µM"},
      {"measurement": "response to 500 nM IVM", "setting": "[1]", "result": "robust responses"},
      {"measurement": "IVM (500 nM) Amplitude", "setting": "GluClαP192M/βWT receptor", "result": "1.4 ± 0.2", "unit": "nA"},
      {"measurement": "IVM (500 nM) Amplitude", "setting": "GluClαP192E/βWT receptor", "result": "1.7 ± 0.3", "unit": "nA"}
    ]}
  ]
}
